Measured values: patent US20220296616A1, “SHP1 AND SHP2 INHIBITORS AND THEIR METHODS OF USE” (Tiaki Therapeutics Inc., priority 2019, published 2022)

What was measured:
cytokine genes = assay: Expression of cytokine genes in organotypic cortical slice cultures; type: cell-based, mice
Protocol: (§1) The treatment of organotypic cortical slice cultures with Compound A for 48 h was associated with reductions in expression of cytokine genes (cx3cl1, tgfbr2, i14ra, tgfb1, tnfrsf10b, csf1r, egfr, fit1, flt4, ccl12; n=3-9, see FIG. 2A showing results of dosing of Compound A at 5 nM, 50 nM, 500 nM, and 5 μM) and pro-inflammatory cytokines like IL-33 (n=3-6, see FIG. 2B showing results of dosing of Compound A at 50 nM, 500 nM, and 5 μM).
(§2) The treatment of organotypic cortical brain slice cultures from adult mice with Compound B for 48 h was associated with reductions in expression of cytokine genes (egfr, i16ra, csf1r, illr1, plekho2; n=3, see FIG. 3A showing results of dosing of Compound B at 2 μM, and 20 μM) and matrix remodeling genes (mmp12, mmp2, mmp16, mmp14; n=3, see FIG. 3B showing results of dosing of Compound B at 2 μM, and 20 μM).
(§3) The treatment of organotypic brain mice cultures from adult mice with Compound C for 72 h was associated with reductions in expression of cytokine genes (egfr, i16ra, csf1r, plekho2; n=2, See FIG. 5A showing results of dosing of Compound C at 0.1 μM, 0.3 μM, and 10 μM), matrix remodeling genes (mmp12, mmp16; n=2, See FIG. 5B for results of dosing of compound C at 0.1 μM, 0.3 μM, and 10 μM), and astrocyte genes (egfr, ai464131, gdpd2, adh1l1; n=2, See FIG. 5C for results of dosing of compound C at 0.1 μM, 0.3 μM, and 10 μM), and increases in expression of neuronal marker genes (tbr1, dlx1, slc17a6, islr2; n=2, See FIG. 5D for results of dosing of compound C at 0.1 μM, 0.3 μM, and 10 μM).

MMP12 protein = assay: Total MMP12 protein in organotypic cortical brain slice cultures; type: cell-based; settings: organotypic cortical brain slice cultures from adult mice, 48 h, 5 nM, 50 nM, 500 nM, 5 μM; significant dose-dependence; FIG. 1B
Protocol: (§4) The treatment of organotypic cortical brain slice cultures from adult mice with Compound A for 48 h was associated with reductions in expression of matrix remodeling genes (mmp9, mmp16, mmp12; n=3-9, see FIG. 1A showing results of dosing of Compound A at 5 nM, 50 nM, 500 nM, and 5 μM) and total MMP12 protein (n=3-6, see FIG. 1B showing results of dosing of Compound A at 5 nM, 50 nM, 500 nM, and 5 μM).

IL-33 = assay: Pro-inflammatory cytokine IL-33 in organotypic cortical slice cultures; type: cell-based, mice; settings: 48 h, 50 nM, 500 nM, 5 μM, FIG. 2B
Protocol: as §1

[1] = system: matrix remodeling genes (mmp9, mmp16, mmp12, mmp2, mmp14); assay: Expression of matrix remodeling genes in organotypic cortical brain slice cultures; type: cell-based, mice
Protocol: as §4, §2, §3

neuronal marker genes = assay: Expression of neuronal marker genes in organotypic cortical brain slice cultures; type: cell-based, mice
Protocol: (§5) The treatment of organotypic cortical brain slice cultures from adult mice with Compound B for 48 h was associated with reductions in expression of astrocyte marker genes (egfr, AI464131, Itga7, Gdpd2, Sox9, Aldh1l1, Entpd2; n=3, see FIG. 4A showing results of dosing of Compound B at 2 μM, and 20 μM) and increases in expression of neuronal marker genes (tbr1, Dlx1, Slc17a6, Islr2; n=3, see FIG. 4B showing results of dosing of Compound B at 2 μM, and 20 μM).
as §3

astrocyte marker genes = assay: Expression of astrocyte marker genes in organotypic cortical brain slice cultures; type: cell-based, mice
Protocol: as §5, §3

SMILES: Cc1nc(N2CCC3(CC2)CO[C@@H](C)[C@H]3N)c(CO)nc1-c1cccc(Cl)c1Cl [Compound A]
- expression of cytokine genes (cx3cl1, tgfbr2, i14ra, tgfb1, tnfrsf10b, csf1r, egfr, fit1, flt4, ccl12) (cytokine genes; organotypic cortical slice cultures, 48 h, 5 nM, 50 nM, 500 nM, 5 μM, FIG. 2A): reductions
- total MMP12 protein (MMP12 protein): reductions
- expression of pro-inflammatory cytokines like IL-33 (IL-33): reductions
- expression of matrix remodeling genes (mmp9, mmp16, mmp12) ([1]; organotypic cortical brain slice cultures from adult mice, 48 h, 5 nM, 50 nM, 500 nM, 5 μM, significant dose-dependence, FIG. 1A): reductions

SMILES: CC1(N)CCN(c2cnc3c(-c4cccc(Cl)c4Cl)n[nH]c3n2)CC1 [Compound C]
- expression of cytokine genes (egfr, i16ra, csf1r, plekho2) (cytokine genes; organotypic brain cultures from adult mice, 72 h, 0.1 μM, 0.3 μM, 10 μM, FIG. 5A): reductions
- expression of neuronal marker genes (tbr1, dlx1, slc17a6, islr2) (neuronal marker genes; organotypic brain cultures from adult mice, 72 h, 0.1 μM, 0.3 μM, 10 μM, FIG. 5D): increases
- expression of astrocyte genes (egfr, ai464131, gdpd2, adh1l1) (astrocyte marker genes; organotypic brain cultures from adult mice, 72 h, 0.1 μM, 0.3 μM, 10 μM, FIG. 5C): reductions
- expression of matrix remodeling genes (mmp12, mmp16) ([1]; organotypic brain cultures from adult mice, 72 h, 0.1 μM, 0.3 μM, 10 μM, FIG. 5B): reductions

SMILES: O=S(=O)(O)c1ccc2cc(/N=N/c3cc(S(=O)(=O)O)c4cccnc4c3O)ccc2c1 [Compound B]
- expression of cytokine genes (egfr, i16ra, csf1r, illr1, plekho2) (cytokine genes; organotypic cortical brain slice cultures from adult mice, 48 h, 2 μM and 20 μM, FIG. 3A): reductions
- expression of neuronal marker genes (tbr1, Dlx1, Slc17a6, Islr2) (neuronal marker genes; organotypic cortical brain slice cultures from adult mice, 48 h, 2 μM and 20 μM, FIG. 4B): increases
- expression of astrocyte marker genes (egfr, AI464131, Itga7, Gdpd2, Sox9, Aldh1l1, Entpd2) (astrocyte marker genes; organotypic cortical brain slice cultures from adult mice, 48 h, 2 μM and 20 μM, FIG. 4A): reductions
- expression of matrix remodeling genes (mmp12, mmp2, mmp16, mmp14) ([1]; organotypic cortical brain slice cultures from adult mice, 48 h, 2 μM and 20 μM, FIG. 3B): reductions
